Measured values taken from patent US20230233569A1 (Revolution Medicines, Inc., priority 2020, published 2023).
“And” between values parts separate entries of the source, which are not always exact repeats. Equal entries are not always repeated. Where two headings read alike, the source gives them in different places.

Key:
NCI-H358 (K-Ras G12C) = test: CellTiter-Glo cell viability assay, 5-day treatment; type: cell-based; settings: Homo sapiens
Procedure: Protocol: CellTiter-Glo® Cell Viability Assay
Note—The following protocol describes a procedure for monitoring cell viability of K-Ras mutant cancer cell lines in response to a compound of the invention. Other RAS isoforms may be employed, though the number of cells to be seeded will vary based on cell line used.
Test compounds (132.5 nL) were directly dispensed into the assay plates containing cells. […] On day 5, assay plates and their contents were equilibrated to room temperature for approximately 30 minutes. […] Luminescence was measured using the PerkinElmer Enspire. Data were normalized by the following: (Sample signal/Avg. DMSO)*100. The data were fit using a four-parameter logistic fit.
Test compounds (132.5 nl) were directly dispensed into the assay plates containing cells. […] On day 5, assay plates and their contents were equilibrated to room temperature for approximately 30 minutes. […] Luminescence was measured using the PerkinElmer Enspire. Data were normalized by the following: (Sample signal/Avg. DMSO)*100. The data were fit using a four-parameter logistic fit.

KRAS G12V = KRAS G12V (Homo sapiens, UniProt P01116+P62937, G12V); test: Disruption of BRAF RBD interaction with Ras (FRET / MOA assay, with Cyclophilin A); type: biochemical
KRAS G12V, sequence (P01116 1-169 isoform P01116-2 G12V limits assumed): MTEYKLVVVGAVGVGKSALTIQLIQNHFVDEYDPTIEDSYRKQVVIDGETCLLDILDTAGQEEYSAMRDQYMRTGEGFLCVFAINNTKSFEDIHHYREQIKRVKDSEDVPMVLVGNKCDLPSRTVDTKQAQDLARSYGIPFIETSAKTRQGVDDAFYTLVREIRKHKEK
KRAS G12V, sequence (P62937 whole entry): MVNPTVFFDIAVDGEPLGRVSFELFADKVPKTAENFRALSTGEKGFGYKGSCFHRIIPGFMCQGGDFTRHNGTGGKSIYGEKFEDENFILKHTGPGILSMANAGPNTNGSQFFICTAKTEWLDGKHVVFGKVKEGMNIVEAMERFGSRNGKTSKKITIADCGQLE
Description: (§1) This protocol may also be executed substituting other Ras proteins or nucleotides.
(§2) The purpose of this biochemical assay was to measure the ability of test compounds to facilitate ternary complex formation between a nucleotide-loaded K-Ras isoform and Cyclophilin A; the resulting ternary complex disrupts binding to a BRAF^RBD construct, inhibiting K-Ras signaling through a RAF effector. Data is reported as IC50 values.
(§3) Compound was present in plate wells as a 10-point 3-fold dilution series starting at a final concentration of 30 μM. After incubation at 25° C. for 3 hours, a mixture of Anti-His Eu-W1024 and anti-GST allophycocyanin was then added to assay sample wells at final concentrations of 10 nM and 50 nM, respectively, and the reaction incubated for an additional 1.5 hours. […] Compounds that facilitate disruption of a K-Ras:RAF complex were identified as those eliciting a decrease in the TR-FRET ratio relative to DMSO control wells.
(§4) The purpose of this biochemical assay was to measure the ability of test compounds to facilitate ternary complex formation between a nucleotide-loaded K-Ras isoform and Cyclophilin A; the resulting ternary complex disrupts binding to a BRAF^RBDD construct, inhibiting K-Ras signaling through a RAF effector. Data is reported as IC50 values.

KRAS WT = KRAS WT (Homo sapiens, UniProt P01116+P62937); test: as above; type: biochemical
KRAS WT, sequence (P01116 1-169 isoform P01116-2 limits assumed): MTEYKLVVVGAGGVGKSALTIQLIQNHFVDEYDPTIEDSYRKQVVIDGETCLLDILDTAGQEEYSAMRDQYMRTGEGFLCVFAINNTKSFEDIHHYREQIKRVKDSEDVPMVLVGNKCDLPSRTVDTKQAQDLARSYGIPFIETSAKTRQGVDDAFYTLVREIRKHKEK
KRAS WT, sequence (P62937 whole entry): as the sequence (P62937 whole entry) above
Description: as §1, §2, §3, §4

KRAS G13C = KRAS G13C (Homo sapiens, UniProt P01116+P62937, G13C); test: as above; type: biochemical
KRAS G13C, sequence (P01116 1-169 isoform P01116-2 G13C): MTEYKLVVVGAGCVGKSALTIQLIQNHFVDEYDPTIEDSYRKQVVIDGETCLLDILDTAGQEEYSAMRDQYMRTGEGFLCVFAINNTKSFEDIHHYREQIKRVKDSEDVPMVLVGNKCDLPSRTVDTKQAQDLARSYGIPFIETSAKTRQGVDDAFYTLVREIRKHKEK
KRAS G13C, sequence (P62937 whole entry): as the sequence (P62937 whole entry) above
Description: as §1, §2, §3, §4

KRAS G12C = KRAS G12C (Homo sapiens, UniProt P01116+P62937, G12C); test: as above; type: biochemical
KRAS G12C, sequence (P01116 1-169 isoform P01116-2 G12C): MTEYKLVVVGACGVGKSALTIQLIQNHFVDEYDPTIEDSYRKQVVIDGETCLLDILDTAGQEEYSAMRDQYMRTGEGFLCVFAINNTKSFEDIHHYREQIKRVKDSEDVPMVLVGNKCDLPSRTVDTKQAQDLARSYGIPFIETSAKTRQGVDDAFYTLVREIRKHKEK
KRAS G12C, sequence (P62937 whole entry): as the sequence (P62937 whole entry) above
Description: as §1, §2, §3, §4

KRAS G13D = KRAS G13D (Homo sapiens, UniProt P01116+P62937, G13D); test: as above; type: biochemical
KRAS G13D, sequence (P01116 1-169 isoform P01116-2 G13D limits assumed): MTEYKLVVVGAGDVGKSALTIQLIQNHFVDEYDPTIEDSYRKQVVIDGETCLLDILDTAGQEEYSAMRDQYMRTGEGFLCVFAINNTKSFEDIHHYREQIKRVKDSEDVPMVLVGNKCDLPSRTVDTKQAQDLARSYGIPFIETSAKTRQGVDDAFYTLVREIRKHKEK
KRAS G13D, sequence (P62937 whole entry): as the sequence (P62937 whole entry) above
Description: as §1, §2, §3, §4

NRAS G12C = NRAS G12C (Homo sapiens, UniProt P01111+P62937, G12C); test: as above; type: biochemical; settings: NRAS G12C; read-out: NRAS G12C FRET data IC50
NRAS G12C, sequence (P01111 whole entry G12C): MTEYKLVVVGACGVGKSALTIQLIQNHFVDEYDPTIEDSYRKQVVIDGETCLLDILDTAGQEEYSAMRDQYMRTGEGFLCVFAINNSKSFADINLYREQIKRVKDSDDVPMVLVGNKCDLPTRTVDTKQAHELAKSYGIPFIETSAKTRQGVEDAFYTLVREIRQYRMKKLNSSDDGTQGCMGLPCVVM
NRAS G12C, sequence (P62937 whole entry): as the sequence (P62937 whole entry) above
Description: as §1, §2, §3, §4

KRAS G12D = KRAS G12D (Homo sapiens, UniProt P01116+P62937, G12D); test: as above; type: biochemical
KRAS G12D, sequence (P01116 1-169 isoform P01116-2 G12D limits assumed): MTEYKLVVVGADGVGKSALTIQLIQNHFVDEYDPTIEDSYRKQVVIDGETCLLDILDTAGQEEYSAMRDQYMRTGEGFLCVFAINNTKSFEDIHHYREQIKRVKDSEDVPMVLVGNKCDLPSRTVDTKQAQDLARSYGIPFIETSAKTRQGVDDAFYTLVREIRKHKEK
KRAS G12D, sequence (P62937 whole entry): as the sequence (P62937 whole entry) above
Description: as §1, §2, §3, §4

KRAS G12S = KRAS G12S (Homo sapiens, UniProt P01116+P62937, G12S); test: as above; type: biochemical
KRAS G12S, sequence (P01116 1-169 isoform P01116-2 G12S limits assumed): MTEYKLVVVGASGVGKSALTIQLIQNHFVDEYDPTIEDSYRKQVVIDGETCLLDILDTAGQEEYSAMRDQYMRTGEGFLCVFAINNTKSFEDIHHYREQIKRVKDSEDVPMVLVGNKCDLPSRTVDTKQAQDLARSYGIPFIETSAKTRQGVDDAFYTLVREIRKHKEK
KRAS G12S, sequence (P62937 whole entry): as the sequence (P62937 whole entry) above
Description: as §1, §2, §3, §4

[1] = NCI-H358, H358, K-Ras G12C, read-out: Additional H358 Cell Viability assay data (K-Ras G12C, IC50)
[2] = KRAS G12V, read-out: KRAS G12V FRET data IC50
[3] = KRAS WT, read-out: KRAS WT FRET data IC50
[4] = KRAS G13C, read-out: KRAS G13C FRET data IC50
[5] = KRAS G12C, read-out: KRAS G12C FRET data IC50
[6] = KRAS G13D, read-out: KRAS G13D FRET data IC50
[7] = read-out: KRAS G12D FRET data, IC50
[8] = read-out: KRAS G12S FRET data, IC50
[9] = NCI-H358, 120 h, 5-day treatment, read-out: H358 Cell Viability assay data (K-Ras G12C, IC50)
[10] = read-out: KRAS G13C FRET data, IC50
[11] = read-out: KRAS G12C FRET data, IC50

Compound | IC50 (KRAS G12V; [2]) | IC50 (KRAS WT; [3]) | IC50 (KRAS G13D; [6]) | IC50 (NRAS G12C) [nM] | IC50 (KRAS G12D; [7]) | IC50 (KRAS G12S; [8]) | IC50 (NCI-H358 (K-Ras G12C); [9]) [nM] | IC50 (KRAS G13C; [10]) | IC50 (KRAS G12C; [11]) | further results
C=CC(=O)N1CC[C@H](C(=O)N(C)[C@H](C(=O)N[C@H]2C[C@H]3CN(CCCO3)c3ccc4c(c3)c(c(-c3cccnc3[C@H](C)OC)n4CC)CC(C)(C)COC(=O)[C@@H]3CCCN(N3)C2=O)C(C)C)C1 (racemic) [Example A405] | > 10000 nM | > 10000 nM | > 10000 nM | > 10000 | > 10000 nM | > 10000 nM | – | – | – | IC50 (NCI-H358 (K-Ras G12C); [1]): > 1000 nM; IC50 (KRAS G13C; [4]): > 10000 nM; IC50 (KRAS G12C; [5]): 1000 to 10000 nM
CCn1c(-c2cnccc2COC)c2c3cc(ccc31)-c1cc(O)cc(c1)C[C@H](NC(=O)[C@H](C(C)C)N(C)C(=O)[C@H]1CCN(C(=O)C3COC3)C1)C(=O)N1CCC[C@H](N1)C(=O)OCC(C)(C)C2 [Example A9] | 100 to 1000 nM | 100 to 1000 nM | 100 to 1000 nM | 100 to 1000 | 1000 to 10000 nM | 100 to 1000 nM | 1000 to 10000 | 100 to 1000 nM | 10 to 100 nM | –
CCn1c(-c2cnccc2COC)c2c3cc(ccc31)-c1cc(O)cc(c1)C[C@H](NC(=O)[C@H](C(C)C)N(C)C(=O)[C@H]1CCNC1)C(=O)N1CCC[C@H](N1)C(=O)OCC(C)(C)C2 [Example A10] | 100 to 1000 nM | 10 to 100 nM | 10 to 100 nM | 10 to 100 | 100 to 1000 nM | 10 to 100 nM | 1000 to 10000 | 10 to 100 nM | 10 to 100 nM | –
CCn1c(-c2cccnc2COC)c2c3cc(ccc31)-c1cc(O)cc(c1)C[C@H](NC(=O)[C@H](C(C)C)N(C)C(=O)[C@H]1CCN(C(=O)CN)C1)C(=O)N1CCC[C@H](N1)C(=O)OCC(C)(C)C2 [Example A12] | 100 to 1000 nM and 1000 to 10000 nM | 100 to 1000 nM and 1000 to 10000 nM | 100 to 1000 nM and 1000 to 10000 nM | 1000 to 10000 | 100 to 1000 nM and 1000 to 10000 nM | 100 to 1000 nM and 1000 to 10000 nM | – | 100 to 1000 nM and 1000 to 10000 nM | 100 to 1000 nM and 10 to 100 nM | IC50 (NCI-H358 (K-Ras G12C); NCI-H358, 120 h, 5-day treatment, read-out: H358 Cell Viability IC50): 4290 nM; IC50 (KRAS G12V; read-out: FRET G12V IC50): 329 nM; IC50 (KRAS G13C; read-out: FRET G13C IC50): 148 nM; IC50 (KRAS G12C; read-out: FRET G12C IC50): 68 nM; IC50 (KRAS G13D; read-out: FRET G13D IC50): 219 nM; IC50 (KRAS G12D; read-out: FRET G12D IC50): 154 nM
CCn1c(-c2cccnc2COC)c2c3cc(ccc31)-c1cc(O)cc(c1)C[C@H](NC(=O)[C@H](C(C)C)N(C)C(=O)[C@H]1CCN(C(C)=O)C1)C(=O)N1CCC[C@H](N1)C(=O)OCC(C)(C)C2 [Example A22] | 100 to 1000 nM | 100 to 1000 nM | 1000 to 10000 nM | – | 1000 to 10000 nM | 100 to 1000 nM | 1000 to 10000 | 100 to 1000 nM | 100 to 1000 nM | –
CCn1c(-c2cnccc2COC)c2c3cc(ccc31)-c1cc(O)cc(c1)C[C@H](NC(=O)[C@H](C(C)C)N(C)C(=O)[C@@H]1CCN(C[C@@H](C)O)C1)C(=O)N1CCC[C@H](N1)C(=O)OCC(C)(C)C2 [Example A31] | – | – | – | 100 to 1000 | – | – | > 10000 | – | – | –
CCn1c(-c2cnccc2COC)c2c3cc(ccc31)-c1cc(O)cc(c1)C[C@H](NC(=O)[C@H](C(C)C)N(C)C(=O)[C@H]1CCN(C(C)C)C1)C(=O)N1CCC[C@H](N1)C(=O)OCC(C)(C)C2 [Example A41] | 1000 to 10000 nM | 100 to 1000 nM | – | – | 100 to 1000 nM | 100 to 1000 nM | 1000 to 10000 | 10 to 100 nM | 100 to 1000 nM | –
CCn1c(-c2cccnc2COC)c2c3cc(ccc31)-c1cc(O)cc(c1)C[C@H](NC(=O)[C@H](C(C)C)N(C)C(=O)[C@H](N)CCCNC(=N)N)C(=O)N1CCC[C@H](N1)C(=O)OCC(C)(C)C2 [Example A48] | 1000 to 10000 nM | 100 to 1000 nM | – | – | 100 to 1000 nM | 100 to 1000 nM | > 10000 | 100 to 1000 nM | 100 to 1000 nM | –
CCn1c(-c2ccccc2CCOC)c2c3cc(ccc31)-c1cc(O)cc(c1)C[C@H](NC(=O)[C@H](C(C)C)N(C)C(=O)CCN)C(=O)N1CCC[C@H](N1)C(=O)OCC(C)(C)C2 [Example A70] | – | – | – | – | – | – | 1000 to 10000 | – | – | IC50 (KRAS G12V; KRAS G12V FRET data IC50, KRAS G12V): > 10000 nM; IC50 (KRAS WT; KRAS WT FRET data IC50, KRAS WT): 1000 to 10000 nM; IC50 (KRAS G13C; KRAS G13C FRET data, IC50): 1000 to 10000 nM; IC50 (KRAS G12C; KRAS G12C FRET data, IC50): 1000 to 10000 nM; IC50 (KRAS G13D; KRAS G13D FRET data IC50, KRAS G13D): 1000 to 10000 nM; IC50 (KRAS G12D; KRAS G12D FRET data, IC50): 1000 to 10000 nM; IC50 (KRAS G12S; KRAS G12S FRET data, IC50): 1000 to 10000 nM
CCn1c(-c2cccnc2[C@H](C)OC)c2c3cc(ccc31)-c1cc(O)cc(c1)C[C@H](NC(=O)[C@H](C(C)C)N(C)C(=O)[C@@H]1CNC[C@@H]1C)C(=O)N1CCC[C@H](N1)C(=O)OCC(C)(C)C2 [Example A128] | 100 to 1000 nM | 10 to 100 nM | 10 to 100 nM | 10 to 100 | 10 to 100 nM | 10 to 100 nM | 1000 to 10000 | 10 to 100 nM | – | –
CCn1c(-c2cccnc2[C@H](C)OC)c2c3cc(ccc31)-c1cc(O)cc(c1)C[C@H](NC(=O)[C@H](C(C)C)N(C)C(=O)[C@@H]1C[C@@H]1F)C(=O)N1CCC[C@H](N1)C(=O)OCC(C)(C)C2 [Example A160] | 10 to 100 nM | – | – | – | – | – | 10 to 100 | – | – | –
C=CC(=O)N1CC(OC[C@H](C(=O)N[C@H]2Cc3cccc(c3)-c3ccc4c(c3)c(c(-c3cccnc3[C@H](C)OC)n4CC(F)(F)F)CC(C)(C)COC(=O)[C@@H]3CCCN(N3)C2=O)C(C)C)C1 [Example A453] | > 10000 nM | > 10000 nM | > 10000 nM | 1000 to 10000 | – | > 10000 nM | – | – | – | IC50 (NCI-H358 (K-Ras G12C); [1]): 100 to 1000 nM; IC50 (KRAS G13C; [4]): > 10000 nM; IC50 (KRAS G12C; [5]): 1000 to 10000 nM
C=CC(=O)N1CC[C@H](C(=O)N(C)[C@H](C(=O)N[C@H]2CCC(=O)N(C)Cc3ccc4c(c3)c(c(-c3cccnc3[C@H](C)OC)n4CC)CC(C)(C)COC(=O)[C@@H]3CCCN(N3)C2=O)C(C)C)C1 [Example A500] | – | – | > 10000 nM | > 10000 | – | – | – | – | – | IC50 (NCI-H358 (K-Ras G12C); [1]): > 1000 nM; IC50 (KRAS G12C; [5]): > 10000 nM
